# Results reported in US11324708B1 (UNION therapeutics A/S, priority 2020, dated 2022).
# Columns and labels:
# SARS-CoV-2 = SARS-CoV-2 in Vero E6 cells; cited from earlier work
# [1] = oral 2 g/day dose
# in vivo = settings: sheep
# all targeted strains = test: Minimum Inhibitory Concentration (MIC) assay, all targeted strains; settings: read-out: MIC against all targeted strains
# TMEM16A = target: T1, TMEM16A (Homo sapiens, UniProt Q5XXA6); settings: cited from earlier work
# T1 sequence (Q5XXA6 1-986): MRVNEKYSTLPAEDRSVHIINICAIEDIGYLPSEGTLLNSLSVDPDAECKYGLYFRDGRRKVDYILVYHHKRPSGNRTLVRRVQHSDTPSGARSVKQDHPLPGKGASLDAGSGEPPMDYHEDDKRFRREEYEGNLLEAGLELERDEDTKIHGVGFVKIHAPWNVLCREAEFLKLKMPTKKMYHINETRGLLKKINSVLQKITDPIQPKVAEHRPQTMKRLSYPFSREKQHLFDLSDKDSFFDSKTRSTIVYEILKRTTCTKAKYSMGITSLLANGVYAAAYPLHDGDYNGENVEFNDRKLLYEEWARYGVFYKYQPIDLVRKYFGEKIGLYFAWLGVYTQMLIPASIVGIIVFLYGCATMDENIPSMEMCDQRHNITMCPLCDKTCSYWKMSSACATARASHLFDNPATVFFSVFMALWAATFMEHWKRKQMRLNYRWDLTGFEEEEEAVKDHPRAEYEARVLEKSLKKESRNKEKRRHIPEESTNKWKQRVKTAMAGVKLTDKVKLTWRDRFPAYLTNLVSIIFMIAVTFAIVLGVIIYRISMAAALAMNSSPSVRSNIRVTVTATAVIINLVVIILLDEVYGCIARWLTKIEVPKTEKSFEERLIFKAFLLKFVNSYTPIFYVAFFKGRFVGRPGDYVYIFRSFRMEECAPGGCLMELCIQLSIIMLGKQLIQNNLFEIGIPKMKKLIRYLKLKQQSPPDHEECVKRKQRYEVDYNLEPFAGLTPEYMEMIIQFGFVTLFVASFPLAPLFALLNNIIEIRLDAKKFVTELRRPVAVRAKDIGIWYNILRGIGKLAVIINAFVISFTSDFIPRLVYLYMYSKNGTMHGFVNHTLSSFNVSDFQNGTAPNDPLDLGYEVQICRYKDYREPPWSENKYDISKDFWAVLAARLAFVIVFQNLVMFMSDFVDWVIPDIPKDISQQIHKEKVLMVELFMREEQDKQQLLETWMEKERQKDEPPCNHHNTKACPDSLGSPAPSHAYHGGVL
# [2] = test system: ATCC 29213, MRSA 434844 and S. aureus Newman; test: Spot test on LB agar, statements for all three strains; assay type: cell-based; settings: for bacterial load in repeated spot test, API in DMSO: only the highest concentrations (niclosamide 100 μg/mL, oxyclozanide 40 μg/mL; 200×-400× MIC of Niclo, 180× MIC Oxy)
# Protocol: Following incubation, the formed colonies were counted. […] Duplicates were performed.
# As both positive controls were negative further the experiment was repeated using different concentrations in a spot test using the same methodology described above.
# In this experiment the negative control was the bacterial suspension only.
# SARS-CoV = settings: Vero E6 cells; read-out: EC50 of SARS-CoV replication; cited from earlier work
# asthmatic mice = settings: niclosamide dissolved in corn oil, I.P. injection; cited from earlier work
# TMEM 116F = target: T2, TMEM 116F (Homo sapiens, UniProt Q4KMQ2); settings: cited from earlier work
# T2 sequence (Q4KMQ2 1-910): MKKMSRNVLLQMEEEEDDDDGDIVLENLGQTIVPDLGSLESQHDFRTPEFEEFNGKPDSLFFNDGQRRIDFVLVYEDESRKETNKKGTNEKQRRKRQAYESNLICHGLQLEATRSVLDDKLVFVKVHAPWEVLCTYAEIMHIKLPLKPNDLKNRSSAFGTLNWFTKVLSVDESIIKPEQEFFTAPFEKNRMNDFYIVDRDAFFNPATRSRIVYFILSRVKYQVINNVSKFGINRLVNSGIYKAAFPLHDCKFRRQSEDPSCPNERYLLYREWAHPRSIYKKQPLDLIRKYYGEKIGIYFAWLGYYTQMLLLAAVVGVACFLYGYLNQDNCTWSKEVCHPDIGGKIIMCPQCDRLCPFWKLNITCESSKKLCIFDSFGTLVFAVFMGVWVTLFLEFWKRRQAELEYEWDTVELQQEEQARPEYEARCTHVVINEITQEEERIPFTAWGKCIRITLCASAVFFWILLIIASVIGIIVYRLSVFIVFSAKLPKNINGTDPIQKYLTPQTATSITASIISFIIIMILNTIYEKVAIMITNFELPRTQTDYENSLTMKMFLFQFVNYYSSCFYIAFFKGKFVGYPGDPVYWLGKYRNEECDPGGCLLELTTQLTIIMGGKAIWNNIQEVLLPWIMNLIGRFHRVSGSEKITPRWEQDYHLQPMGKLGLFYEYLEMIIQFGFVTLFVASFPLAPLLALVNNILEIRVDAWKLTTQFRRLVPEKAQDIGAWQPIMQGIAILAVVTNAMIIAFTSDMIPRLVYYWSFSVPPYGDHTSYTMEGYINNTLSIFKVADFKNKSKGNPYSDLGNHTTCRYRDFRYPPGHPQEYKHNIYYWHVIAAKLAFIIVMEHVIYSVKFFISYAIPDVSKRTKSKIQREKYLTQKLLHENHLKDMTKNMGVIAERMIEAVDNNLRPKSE
smiles,measurement,setting,value
CCN(CC)CCCC(C)Nc1ccnc2cc(Cl)ccc12 (stereo not shown) [chloroquine],EC50,SARS-CoV-2,1130 nM
O=C(Nc1ccc([N+](=O)[O-])cc1Cl)c1cc(Cl)ccc1O [niclosamide],efficacy margin mean systemic exposure of human oral dose to IC90,[1],8 fold
same,Cmax,in vivo; systemic exposure Cmax (mean),577 ng/mL
same,Cmax,in vivo; systemic exposure Cmax (range),217 to 803 ng/mL
same,MIC,all targeted strains,≤ 0.5 µg/mL
same,inhibition of Cl- channel TMEM16A,TMEM16A,potent inhibitor
same,"bacterial load in repeated spot test, API in DMSO",[2],substantially decreased the bacterial load
same,EC50,SARS-CoV,< 100 nM
same,effect in asthmatic mice,asthmatic mice,"reduced mucus production and secretion, as well as bronchoconstriction"
same,inhibition of Cl- channel TMEM 116F,TMEM 116F,potent inhibitor
CC(=O)Oc1ccccc1C(=O)Nc1ncc([N+](=O)[O-])s1 [nitazoxanide],EC50,SARS-CoV-2,2120 nM
"O=C(Nc1cc(Cl)cc(Cl)c1O)c1c(O)c(Cl)cc(Cl)c1Cl [oxyclozanide, Oxyclozanide]",efficiency in reducing bacterial load,[2]; comparison among formulations,highest efficiency in reducing bacterial load of S. aureus
same,"bacterial load in repeated spot test, API in DMSO",[2],substantially decreased the bacterial load
